Data from patent US20030129222A1, “Liposomal imexon” (priority 2000, published 2003).
Counter-ions that a name gives are not always drawn. Like-named read-outs stand apart in the source and are kept apart here. Starred links: 1 amine or outer side, 2 acyl side, 3 side chain; linkers in the order of their positions; H or OH if unused. Positions of bridges follow the written chain, without caps; N, C: chain ends. Non-standard residues stand in square brackets, D forms with d. Residues, ends and D or L forms follow the SMILES beside them. Chains are numbered I, II in the order given. Actinocin(9to1) = Cc1c2oc3c(C)ccc(C(=O)[*:1])c3nc-2c(C(=O)[*:2])c(N)c1=O; NMeV = CN[C@H](C(=O)O)C(C)C; Sar = CNCC(=O)O

What was measured:
[1] = cited from earlier work
[2] = system: MCF7 breast, Sens; test: Cytotoxicity in tumor cell culture, SRB assay; format: cell-based, human; conditions: read-out: IC50 against human mouse tumors, MCF7 breast Sens
Text: (§1) Relative potencies of the N-substituted 2-cyanoaziridine-1-carboxamides in a panel of tumor cell cultures are compared in Table 3. This panel includes the following lines of human tumor cells: sensitive and imexon-resistant lines of multiple myeloma (Matsuoka et al., 1967); ovarian carcinoma resistant to standard drugs (Hamilton et al., 1984); melanoma with a slow growth fraction (Girard et al., 1973); breast carcinoma including sensitive, doxorubicin-resistant (P-glycoprotein-positive) (Taylor et al., 1991), and mitoxantrone-resistant (P-glycoprotein-negative) (Futscher et al., 1994) lines; sensitive and multidrug-resistant colon carcinoma (Noguchi et al., 1979; Dalton et al., 1988); and multidrug-resistant lung carcinoma (P-glycoprotein-negative) (Girard et al., 1973). It also has sensitive (Goldin et al., 1961) and multidrug-resistant (P-glycoprotein-positive) (Salmon and Hersh, 1994) murine L1210 leukemia cells.

[3] = system: A-549 lung; test: Cytotoxicity in tumor cell culture, SRB assay; format: cell-based, human; conditions: read-out: IC50 against human mouse tumors, A-549 lung
Text: as §1

[4] = system: OVCAR3 ovarian; test: Cytotoxicity in tumor cell culture, SRB assay; format: cell-based, human; conditions: read-out: IC50 against human mouse tumors, OVCAR3 ovarian
Text: as §1

[5] = system: MCF7 breast, Dox (doxorubicin-resistant); test: Cytotoxicity in tumor cell culture, SRB assay; format: cell-based, human; conditions: doxorubicin-resistant; read-out: IC50 against human mouse tumors, MCF7 breast Dox
Text: as §1

[6] = system: MCF7 breast, mitox (mitoxantrone-resistant); test: Cytotoxicity in tumor cell culture, SRB assay; format: cell-based, human; conditions: mitoxantrone-resistant; read-out: IC50 against human mouse tumors, MCF7 breast mitox
Text: as §1

[7] = system: 8226 myeloma, Sens (drug-sensitive); test: Cytotoxicity in tumor cell culture, SRB assay; format: cell-based, human
Text: as §1

[8] = system: A375 melan; test: Cytotoxicity in tumor cell culture, SRB assay; format: cell-based, human; conditions: read-out: IC50 against human mouse tumors, A375 melan
Text: as §1

[9] = system: 8226 myeloma, Res (imexon-resistant); test: Cytotoxicity in tumor cell culture, SRB assay; format: cell-based; conditions: line made resistant to imexon; read-out: IC50 against human mouse tumors, 8226 myeloma Res
Text: as §1

[10] = system: WiDr colon, res; test: Cytotoxicity in tumor cell culture, SRB assay; format: cell-based; conditions: multidrug-resistant; read-out: IC50 against human mouse tumors, WiDr colon res
Text: as §1

[11] = system: WiDr colon, Sens; test: Cytotoxicity in tumor cell culture, SRB assay; format: cell-based; conditions: read-out: IC50 against human mouse tumors, WiDr colon Sens
Text: as §1

[12] = system: L1210 leukemia, Sens; test: Cytotoxicity in tumor cell culture, MTT assay; format: cell-based, murine; conditions: MTT assay; read-out: IC50 against human mouse tumors, L1210 leukemia Sens
Text: as §1

[13] = system: L1210 leukemia, Mdr; test: Cytotoxicity in tumor cell culture, MTT assay; format: cell-based, murine; conditions: MTT assay, multidrug-resistant; read-out: IC50 against human mouse tumors, L1210 leukemia Mdr
Text: as §1

[14] = substituent constant, from Hansch and Leo or calculated using Clog P software; cited from earlier work
[15] = against sensitive myeloma, values repeated from Table 3 (μM there), read-out: IC50
[16] = drug-sensitive line, read-out: IC50 against human mouse tumors, 8226 myeloma Sens
[17] = single oral doses of about 0.6 mg/kg to about […]
[18] = intravenous injection, after distribution

| SMILES | IC50 [2] [µM] | IC50 [3] [µM] | IC50 [4] [µM] | IC50 [5] [µM] | IC50 [6] [µM] | IC50 [7, 16] [µM] | IC50 [8] [µM] | IC50 [9] [µM] | IC50 [10] [µM] | IC50 [11] [µM] | IC50 [12] [µM] | IC50 [13] [µM] | oral absorption ([1]; in vivo) | further results |
| --- | --- | --- | --- | --- | --- | --- | --- | --- | --- | --- | --- | --- | --- | --- |
| Cc1c2oc3c(C)ccc(C(=O)N[C@@H]4C(=O)N[C@H](C(C)C)C(=O)N5CCC[C@H]5C(=O)N(C)CC(=O)N(C)[C@@H](C(C)C)C(=O)O[C@@H]4C)c3nc-2c(C(=O)N[C@@H]2C(=O)N[C@H](C(C)C)C(=O)N3CCC[C@H]3C(=O)N(C)CC(=O)N(C)[C@@H](C(C)C)C(=O)O[C@@H]2C)c(N)c1=O [Actinomycin D] (I: T[dV]P[Sar][NMeV] / II: T[dV]P[Sar][NMeV]; ester I:1-I:C, II:1-II:C; linker I:N-II:N via Actinocin(9to1)) |  |  |  |  |  |  |  |  |  |  |  |  |  | dose excreted intact into the bile ([1]; in vivo): Half; dose excreted intact into the urine ([1]; in vivo): 10%; half-life ([1]; in vivo): about 36 hours; passage of the blood-brain barrier ([1]; in vivo): does not pass the blood-brain barrier |
| N#CC1CN1C(=O)Nc1cccnc1 (stereo not shown) [Compound 24, 2-Cyanoaziridine-1-[N-(3-pyridyl)]carboxamide] | 4.2 | 16 | 10 | 6.6 | 5.4 | 12 | 12 | 15 | 18 | 6 | 11 | 16 |  | Log(1/C) ([7]; against sensitive myeloma): 4.95; IC50 [7, 15]: 12 µM; π [14]: 0.32 |
| CC[C@]1(O)C[C@H]2CN(CCc3c([nH]c4ccccc34)[C@@](C(=O)OC)(c3cc4c(cc3OC)N(C=O)[C@H]3[C@@](O)(C(=O)OC)[C@H](OC(C)=O)[C@]5(CC)C=CCN6CC[C@]43[C@@H]65)C2)C1 [Vincristine] |  |  |  |  |  |  |  |  |  |  |  |  | Unpredictable absorption | terminal half-life ([1]; plasma): about 24 hours |
| CC(=O)Oc1ccccc1NC(=O)N1CC1C#N (stereo not shown) [Compound 21, 2-Cyanoaziridine-1-[N-(2-acetoxyphenyl)]carboxamide] | 3.6 | 5.6 | 10 | 3.2 | 3.5 | 8.7 | 7.9 | 9.6 | 9 | 3.3 | 9.6 | 7.9 |  | Log(1/C) ([7]; against sensitive myeloma): 5.06; IC50 [7, 15]: 8.7 µM; π [14]: 1.45 |
| CCNC(=O)N1CC1C#N (stereo not shown) [Compound 7, 2-Cyanoaziridine-1-(N-ethyl) carboxamide] | 29 | 18 | 14 | 20 | 10 | 22 | 36 | 26 | 7 | 4 | 14 | 14 |  | Log(1/C) ([7]; against sensitive myeloma): 4.66; IC50 [7, 15]: 22 µM; π [14]: 1.02 |
| COc1cccc2c1C(=O)c1c(O)c3c(c(O)c1C2=O)C[C@@](O)(C(C)=O)C[C@@H]3O[C@H]1C[C@H](N)[C@H](O)[C@H](C)O1 [Daunorubicin, 5,12-Naphthacenedione, (8S-cis)-8-acetyl-10-[(3-amino-2,3,6-trideoxy-a-L-lyxo-hexanopyranosyl)oxy]-7,8,9,10-tetrahydro-6,8,11-trihydroxy-10-methoxy-, hydrochloride] |  |  |  |  |  |  |  |  |  |  |  |  | poor | half-life of elimination ([1]; in vivo): about 19 hours |
| CC(=O)c1cccc(NC(=O)N2CC2C#N)c1 (stereo not shown) [Compound 20, 2-Cyanoaziridine-1-[N-(3-acetylphenyl)]carboxamide] | > 16 | > 41 | > 39 | > 16 | > 16 | > 39 | > 39 | > 39 | > 41 | 40 | > 39 | > 39 |  |  |
| N#CC1CN1C(=O)Nc1ccc(Cl)c(Cl)c1 (stereo not shown) [Compound 18, 2-Cyanoaziridine-1-[N-(3,4-dichlorophenyl)]carboxamide] | 4.6 | 7.5 | 5.6 | 7.2 | 4.4 | 1.1 | 5.9 | 2.7 | 14 | 7 | 2.6 | 7.2 |  | Log(1/C) ([7]; against sensitive myeloma): 5.96; IC50 [7, 15]: 1.1 µM; π [14]: 3.42 |
| O=C(O)CCCc1ccc(N(CCCl)CCCl)cc1 [Chlorambucil, 4-[bis(2-chlorethyl)amino] benzenebutanoic acid] |  |  |  |  |  |  |  |  |  |  |  |  | rapidly and completely absorbed | terminal half-life of the parent drug [1, 17]: about 1.5 hours; time to peak plasma chlorambucil levels [1, 17]: one |
| COc1cccc2c1C(=O)c1c(O)c3c(c(O)c1C2=O)C[C@@](O)([C@H](C)O)C[C@@H]3O[C@H]1C[C@H](N)[C@H](O)[C@H](C)O1 [daunorubicinol] |  |  |  |  |  |  |  |  |  |  |  |  |  | half-life of active metabolite ([1]; metabolite of daunorubicin): about 27 hours |
| O=NN(CCCl)C(=O)NC1CCCCC1 [Lomustine, 1-(2-chloro-ethyl)-3-cyclohexyl-1 nitrosourea] |  |  |  |  |  |  |  |  |  |  |  |  |  | radioactivity excreted in the form of degradation products within 24 hours ([1]; oral radioactive lomustine, about 30 mg/m^2 to 100 mg/m^2): about half |
| N#CC1CN1C(=O)Nc1ccc(S(N)(=O)=O)cc1 (stereo not shown) [Compound 22, 2-Cyanoaziridine-1-[N-(4-sulfamylphenyl)]carboxamide] | > 15 | > 38 | 188 | > 15 | > 15 | > 38 | 188 | > 38 | > 38 | > 38 | > 38 | > 38 |  |  |
| CCOC(=O)CNC(=O)N1CC1C#N (stereo not shown) [Compound 12] | 15 | 24 |  | 17 | 11 | 25 | 51 | 30 | 33 | 31 | 13 | 13 |  | Log(1/C) ([7]; against sensitive myeloma): 4.60; IC50 [7, 15]: 25 µM; π [14]: 1.01 |
| CCOC(=O)c1ccc(NC(=O)N2CC2C#N)cc1 (stereo not shown) [Compound 19, 2-Cyanoaziridine-1-[N-(4-ethoxycarbonylphenyl)]carboxamide] | 2.3 | 2.9 | 7.7 | 2.1 | 3.3 | 3 | 5.8 | 3 | 4.2 | 2.5 | 9.7 | 9.7 |  |  |
| COc1cccc2c1C(=O)c1c(O)c3c(c(O)c1C2=O)C[C@@](O)(C(=O)CO)C[C@@H]3O[C@H]1C[C@H](N)[C@H](O)[C@H](C)O1 [Doxorubicin, 5,12-Naphthacenedione, (8s-cis)-10-[(3-amino-2,3,6-trideoxy-a-L-lyxo-hexopyranosyl)oxy]-7,8,9,10-tetrahydro-6,8,11-trihydroxy-8-(hydroxyacetyl)-1-methoxy-hydrochloride] |  |  |  |  |  |  |  |  |  |  |  |  | absorbed poorly | elimination half-life ([1]; in vivo): about 30 hours |
| CC[C@]1(O)C[C@@H]2CN(CCc3c([nH]c4ccccc34)[C@@](C(=O)OC)(c3cc4c(cc3OC)N(C)[C@H]3[C@@](O)(C(=O)OC)[C@H](OC(C)=O)[C@]5(CC)C=CCN6CC[C@]43[C@@H]65)C2)C1 [Vinblastine] |  |  |  |  |  |  |  |  |  |  |  |  | Unpredictable absorption | dose recovered in the feces after biliary excretion ([1]; in vivo): about 10%; plasma half-life, first [1, 18]: approximately 1 hours; plasma half-life, second [1, 18]: ~20 h |
| N.N.[Cl][Pt][Cl] [Cisplatin] |  |  |  |  |  |  |  |  |  |  |  |  | not absorbed orally |  |
